The results in this text go back to ChEMBL document CHEMBL1146731, “Design, synthesis, and structure-activity relationships of pyrazolo[3,4-d]pyrimidines: a novel class of potent enterovirus inhibitors” (Bioorg Med Chem Lett, 2004).

pIC50: −log10 of the molar value.

The test system of the first test is Enterovirus. As to the kind of experiment: Inhibitory concentration to prevent formation of Enterovirus (EV 71) plaques. The test is classed as functional, organism-based.
Turning to `c1ccc(C(c2ccccn2)N2CCN(c3ncnc4c3cnn4-c3ccccc3)CC2)cc1` (centres undefined), the pIC50 – broadly, the negative decadic logarithm of the IC50, by convention in mol/L – is 6.43.

The compound `c1ccc(C(c2cccnc2)N2CCN(c3ncnc4c3cnn4-c3ccccc3)CC2)cc1` (centres undefined) showed a negative-log IC50 (pIC50) of 5.34.

`c1ccc(C(c2ccco2)N2CCN(c3ncnc4c3cnn4-c3ccccc3)CC2)cc1` (centres undefined) gave a pIC50 of 5.90.

`Cc1ccsc1C(c1c(C)noc1C)N1CCN(c2ncnc3c2cnn3-c2ccccc2)CC1` (centres undefined) gave a pIC50 of 6.19.

As to `Cc1noc(C)c1C(c1ccccc1)N1CCN(c2ncnc3c2cnn3-c2ccccc2)CC1` (centres undefined), the pIC50 is 6.24.

The compound `Brc1ccc(C(c2ccccc2)N2CCN(c3ncnc4c3cnn4-c3ccccc3)CC2)cc1` (centres undefined) gave a pIC50 of 6.04. This pIC50 is 0.20 log units lower than that of the compound before.

In the case of `c1ccc(C(c2ccncc2)N2CCN(c3ncnc4c3cnn4-c3ccccc3)CC2)cc1` (centres undefined), the pIC50 is 6.11.

As to `N#Cc1ccc(C(c2ccccc2)N2CCN(c3ncnc4c3cnn4-c3ccccc3)CC2)cc1` (centres undefined), the pIC50 is 6.03.

For `Clc1ccc(C(c2ccccc2)N2CCN(c3ncnc4c3cnn4-c3ccccc3)CC2)cc1` (centres undefined), the pIC50 is 5.71.

`c1ccc(C(c2nccs2)N2CCN(c3ncnc4c3cnn4-c3ccccc3)CC2)cc1` (centres undefined) gave a pIC50 of 6.47.

`Cc1ccsc1C(c1ccccn1)N1CCN(c2ncnc3c2cnn3-c2ccccc2)CC1` (centres undefined): the pIC50 was 6.44. This pIC50 and that of the compound before are within 0.2 log units of each other.

The compound `c1ccc(-c2ccc(C(c3ccccc3)N3CCN(c4ncnc5c4cnn5-c4ccccc4)CC3)cc2)cc1` (centres undefined) had a pIC50 of 5.72.

`CCCn1ncc2c(N3CCN(C(c4ccccc4)c4ccccc4)CC3)ncnc21`: the pIC50 is under 4.60.

Another test deals with Rhabdomyosarcoma cell. As to the kind of experiment: Cytotoxic effect of compound towards human Rhabdomyosarcoma cell line was evaluated. Format: functional, cell-based.
With `c1ccc(C(c2ccccn2)N2CCN(c3ncnc4c3cnn4-c3ccccc3)CC2)cc1` (centres undefined), the pIC50 is under 4.60.

For `c1ccc(C(c2cccnc2)N2CCN(c3ncnc4c3cnn4-c3ccccc3)CC2)cc1` (centres undefined), the pIC50 was under 4.60.

`c1ccc(C(c2ccco2)N2CCN(c3ncnc4c3cnn4-c3ccccc3)CC2)cc1` (centres undefined) had a pIC50 of under 4.60.

`Cc1ccsc1C(c1c(C)noc1C)N1CCN(c2ncnc3c2cnn3-c2ccccc2)CC1` (centres undefined) gave a pIC50 of under 4.60.

With `Cc1noc(C)c1C(c1ccccc1)N1CCN(c2ncnc3c2cnn3-c2ccccc2)CC1` (centres undefined), the pIC50 was under 4.60.

`Brc1ccc(C(c2ccccc2)N2CCN(c3ncnc4c3cnn4-c3ccccc3)CC2)cc1` (centres undefined) had a pIC50 of under 4.60.

Consider `c1ccc(C(c2ccncc2)N2CCN(c3ncnc4c3cnn4-c3ccccc3)CC2)cc1` (centres undefined), for which the pIC50 was under 4.60.

The compound `N#Cc1ccc(C(c2ccccc2)N2CCN(c3ncnc4c3cnn4-c3ccccc3)CC2)cc1` (centres undefined) had a pIC50 of under 4.60.

`Clc1ccc(C(c2ccccc2)N2CCN(c3ncnc4c3cnn4-c3ccccc3)CC2)cc1` (centres undefined) gave a pIC50 of under 4.60.

Regarding `c1ccc(C(c2nccs2)N2CCN(c3ncnc4c3cnn4-c3ccccc3)CC2)cc1` (centres undefined), the pIC50 was under 4.60.

`Cc1ccsc1C(c1ccccn1)N1CCN(c2ncnc3c2cnn3-c2ccccc2)CC1` (centres undefined) had a pIC50 of under 4.60.

For `c1ccc(-c2ccc(C(c3ccccc3)N3CCN(c4ncnc5c4cnn5-c4ccccc4)CC3)cc2)cc1` (centres undefined), the pIC50 is under 4.60.

`CCCn1ncc2c(N3CCN(C(c4ccccc4)c4ccccc4)CC3)ncnc21` showed a pIC50 of under 4.60.

Another test concerns Coxsackievirus. The experiment in a line: Inhibitory concentration to prevent formation of Coxsackievirus B3 (CVB3) plaques. Format: functional, organism-based.
In turn, `c1ccc(C(c2ccccn2)N2CCN(c3ncnc4c3cnn4-c3ccccc3)CC2)cc1` (centres undefined) showed a pIC50 of 6.77.

For `c1ccc(C(c2cccnc2)N2CCN(c3ncnc4c3cnn4-c3ccccc3)CC2)cc1` (centres undefined), the pIC50 is 6.28. Compared with the last compound, the pIC50 is 0.49 log units lower.

The compound `c1ccc(C(c2ccco2)N2CCN(c3ncnc4c3cnn4-c3ccccc3)CC2)cc1` (centres undefined) had a pIC50 of 6.57.

In turn, `Cc1ccsc1C(c1c(C)noc1C)N1CCN(c2ncnc3c2cnn3-c2ccccc2)CC1` (centres undefined) gave a pIC50 of 7.09.

`Cc1noc(C)c1C(c1ccccc1)N1CCN(c2ncnc3c2cnn3-c2ccccc2)CC1` (centres undefined) showed a pIC50 of 7.02.

Consider `Brc1ccc(C(c2ccccc2)N2CCN(c3ncnc4c3cnn4-c3ccccc3)CC2)cc1` (centres undefined), for which the pIC50 was 6.31.

For the compound `c1ccc(C(c2ccncc2)N2CCN(c3ncnc4c3cnn4-c3ccccc3)CC2)cc1` (centres undefined), the pIC50 is 6.52.

Compound `N#Cc1ccc(C(c2ccccc2)N2CCN(c3ncnc4c3cnn4-c3ccccc3)CC2)cc1` (centres undefined) showed a pIC50 of 6.74.

Compound `Clc1ccc(C(c2ccccc2)N2CCN(c3ncnc4c3cnn4-c3ccccc3)CC2)cc1` (centres undefined) showed a pIC50 of 6.59. The pIC50 values of the last two compounds are within 0.2 log units of each other.

In the case of `c1ccc(C(c2nccs2)N2CCN(c3ncnc4c3cnn4-c3ccccc3)CC2)cc1` (centres undefined), the pIC50 was 6.96.

In the case of `Cc1ccsc1C(c1ccccn1)N1CCN(c2ncnc3c2cnn3-c2ccccc2)CC1` (centres undefined), the pIC50 is 7.20.

For the compound `c1ccc(-c2ccc(C(c3ccccc3)N3CCN(c4ncnc5c4cnn5-c4ccccc4)CC3)cc2)cc1` (centres undefined), the pIC50 is 6.51.

As for `CCCn1ncc2c(N3CCN(C(c4ccccc4)c4ccccc4)CC3)ncnc21`, the pIC50 is under 4.60.
